Test results from PubChem BioAssay (NCI).
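Compound exposure: 48 hours, 5 concentrations, 96-well plates. GI50: concentration for 50% inhibition of growth. TGI marks complete inhibition of growth.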

Key:
Experiment in all cases: NCI tumour cell line growth inhibition, 48 h
NCI-H23 lung = tested on: NCI-H23 lung
NCI-H460 lung = tested on: NCI-H460 lung
NCI-H522 lung = tested on: NCI-H522 lung
NCI/ADR-RES ovarian = tested on: NCI/ADR-RES ovarian
OVCAR-3 ovarian = tested on: OVCAR-3 ovarian
OVCAR-4 ovarian = tested on: OVCAR-4 ovarian
OVCAR-5 ovarian = tested on: OVCAR-5 ovarian
OVCAR-8 ovarian = tested on: OVCAR-8 ovarian
PC-3 prostate = tested on: PC-3 prostate
RPMI-8226 leukemia = tested on: RPMI-8226 leukemia
RXF 393 renal = tested on: RXF 393 renal
SF-268 CNS = tested on: SF-268 CNS
SF-295 CNS = tested on: SF-295 CNS
SF-539 CNS = tested on: SF-539 CNS
SK-MEL-2 melanoma = tested on: SK-MEL-2 melanoma
SK-MEL-28 melanoma = tested on: SK-MEL-28 melanoma
SK-MEL-5 melanoma = tested on: SK-MEL-5 melanoma
SK-OV-3 ovarian = tested on: SK-OV-3 ovarian
SN12C renal = tested on: SN12C renal
SNB-19 CNS = tested on: SNB-19 CNS
SNB-75 CNS = tested on: SNB-75 CNS
SR leukemia = tested on: SR leukemia
SW-620 colon = tested on: SW-620 colon
T-47D breast = tested on: T-47D breast
TK-10 renal = tested on: TK-10 renal
U251 CNS = tested on: U251 CNS
UACC-257 melanoma = tested on: UACC-257 melanoma
UACC-62 melanoma = tested on: UACC-62 melanoma
UO-31 renal = tested on: UO-31 renal

COc1cccc(COc2cc(-n3cnc4ccccc43)sc2C(N)=O)c1
GI50 (NCI-H23 lung): > 16.6 µM
TGI (NCI-H23 lung): > 25 µM
GI50 (NCI-H460 lung): 9.23 µM
TGI (NCI-H460 lung): > 25 µM
GI50 (NCI-H522 lung): 9.92 µM
TGI (NCI-H522 lung): > 25 µM
GI50 (NCI/ADR-RES ovarian): 1.75 µM
TGI (NCI/ADR-RES ovarian): > 25 µM
GI50 (OVCAR-3 ovarian): 5.09 µM
TGI (OVCAR-3 ovarian): > 25 µM
GI50 (OVCAR-4 ovarian): > 25 µM
TGI (OVCAR-4 ovarian): > 25 µM
GI50 (OVCAR-5 ovarian): 14.2 µM
TGI (OVCAR-5 ovarian): > 25 µM
GI50 (OVCAR-8 ovarian): 11.9 µM
TGI (OVCAR-8 ovarian): > 25 µM
GI50 (PC-3 prostate): > 25 µM
TGI (PC-3 prostate): > 25 µM
GI50 (RPMI-8226 leukemia): > 25 µM
TGI (RPMI-8226 leukemia): > 25 µM
GI50 (RXF 393 renal): 5.69 µM
TGI (RXF 393 renal): > 25 µM
GI50 (SF-268 CNS): 5.88 µM
TGI (SF-268 CNS): > 25 µM
GI50 (SF-295 CNS): > 15.6 µM
TGI (SF-295 CNS): > 25 µM
GI50 (SF-539 CNS): 16 µM
TGI (SF-539 CNS): > 25 µM
GI50 (SK-MEL-2 melanoma): > 15.4 µM
TGI (SK-MEL-2 melanoma): > 25 µM
GI50 (SK-MEL-28 melanoma): > 24 µM
TGI (SK-MEL-28 melanoma): > 25 µM
GI50 (SK-MEL-5 melanoma): > 19.4 µM
TGI (SK-MEL-5 melanoma): > 25 µM
GI50 (SK-OV-3 ovarian): > 16.2 µM
TGI (SK-OV-3 ovarian): > 25 µM
GI50 (SN12C renal): > 20.5 µM
TGI (SN12C renal): > 25 µM
GI50 (SNB-19 CNS): 14.4 µM
TGI (SNB-19 CNS): > 25 µM
GI50 (SNB-75 CNS): > 12.2 µM
TGI (SNB-75 CNS): > 25 µM
GI50 (SR leukemia): 6.98 µM
TGI (SR leukemia): > 25 µM
GI50 (SW-620 colon): > 11.1 µM
TGI (SW-620 colon): > 25 µM
GI50 (T-47D breast): > 25 µM
TGI (T-47D breast): > 25 µM
GI50 (TK-10 renal): > 25 µM
TGI (TK-10 renal): > 25 µM
GI50 (U251 CNS): > 13.6 µM
TGI (U251 CNS): > 25 µM
GI50 (UACC-257 melanoma): > 25 µM
TGI (UACC-257 melanoma): > 25 µM
GI50 (UACC-62 melanoma): 18.1 µM
TGI (UACC-62 melanoma): > 25 µM
GI50 (UO-31 renal): > 25 µM
TGI (UO-31 renal): > 25 µM
